These results are taken from ChEMBL document CHEMBL1201862, “PubChem BioAssay data set” (2004).

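Compound exposure: 48 hours, 5 concentrations, 96-well plates. GI50 is the concentration that inhibits growth by half.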 The source made the active and inactive calls. Rule as the data show it: active = GI50 up to about 1.1 µM and inactive = higher.

Test systems include K562; MDA-MB-435; Hs-578T; HCT-15; UACC-257; CAKI-1; UO-31; SF-539; NCI-H460; HOP-62; IGROV-1; U-251; HCC 2998; OVCAR-3; NCI-H23; NCI-H522; CCRF-CEM; HL-60; COLO 205; A498.
Common to all, as to assay: inhibition of tumour cell growth, NCI panel, 48 h

Turning to `CCCCCCCCCCCCCCCCNC(=O)/C(O)=C/C(=O)c1ccc(C)cc1`, the GI50 is > 10 µM (inactive) in the experiment with K562; > 10 µM (inactive) in the experiment on MDA-MB-435; > 10 µM (inactive) in the experiment with Hs-578T; greater than 10 µM with HCT-15; > 10 µM (inactive) in the experiment with UACC-257; > 10 µM (inactive) in the experiment with CAKI-1. Also, the GI50 in the experiment on UO-31, with SF-539, in the experiment on NCI-H460, in the experiment with HOP-62, in the experiment with IGROV-1 and in the experiment with U-251 was > 10 µM (inactive) throughout. For the same compound, the GI50 in the experiment on HCC 2998 was > 10 µM (inactive); in the experiment with OVCAR-3, > 10 µM (inactive); with NCI-H23, > 10 µM (inactive); in the experiment on NCI-H522 it was > 10 µM (inactive); with CCRF-CEM it was > 10 µM (inactive); in the experiment with HL-60, 8.05 µM (inactive). The GI50 with COLO 205 and in the experiment on A498 was > 10 µM (inactive) in each case.

Turning to `C=CCN1C(=O)/C(=C/c2ccc(OC)cc2)N=C1SC/C=C/C`, the GI50 in the experiment with K562 is 42.5 µM (inactive); with MDA-MB-435 it was 33.3 µM (inactive); in the experiment with Hs-578T, 50.1 µM (inactive); in the experiment on HCT-15, 24.2 µM; with UACC-257, 36.7 µM (inactive); in the experiment on CAKI-1, 84.5 µM (inactive). The GI50 in the experiment on UO-31 is 32.1 µM (inactive); in the experiment on SF-539, > 100 µM (inactive); in the experiment on NCI-H460, 61.9 µM (inactive); with HOP-62, > 100 µM (inactive); with IGROV-1 it was > 100 µM (inactive); with U-251 it was 35.1 µM (inactive). The GI50 in the experiment with HCC 2998 is 63.2 µM (inactive); in the experiment on OVCAR-3, 74.1 µM (inactive); in the experiment on NCI-H23, 41.5 µM (inactive); with NCI-H522 it was 28.1 µM (inactive); in the experiment with CCRF-CEM, 26.4 µM (inactive); with HL-60, 20 µM (inactive). The GI50 with COLO 205 was 29.2 µM (inactive); in the experiment on A498, 23.9 µM (inactive).

As for `C=C(CN(CC)CC)C1(c2ccccc2)CC2(CCCC2)C(=O)O1` (stereo not given), the GI50 is > 100 µM (inactive) in the experiment with K562; > 100 µM (inactive) in the experiment on MDA-MB-435; > 100 µM (inactive) in the experiment on Hs-578T; greater than 100 µM in the experiment with HCT-15; 34.4 µM (inactive) with UACC-257; > 100 µM (inactive) in the experiment with CAKI-1. For the same compound, the GI50 was > 100 µM (inactive) with UO-31; > 100 µM (inactive) with SF-539; 68.7 µM (inactive) in the experiment with NCI-H460; > 100 µM (inactive) in the experiment on HOP-62; > 100 µM (inactive) with IGROV-1; > 100 µM (inactive) in the experiment with U-251. For the same compound, the GI50 is > 100 µM (inactive) with HCC 2998; 82 µM (inactive) in the experiment with OVCAR-3; 33 µM (inactive) with NCI-H23; 35 µM (inactive) in the experiment on NCI-H522; > 100 µM (inactive) with CCRF-CEM; 40.6 µM (inactive) with HL-60. Further, the values for the GI50 in the experiment on COLO 205 and in the experiment with A498 were 55 µM (inactive) and > 100 µM (inactive), respectively.

For the compound `NNC(=O)Cc1cccnc1`, the GI50 in the experiment with K562 is > 100 µM (inactive); in the experiment with MDA-MB-435 it was > 100 µM (inactive); in the experiment with Hs-578T, > 100 µM (inactive); in the experiment with HCT-15 it was greater than 100 µM; with UACC-257, > 100 µM (inactive); in the experiment on CAKI-1, > 100 µM (inactive). Moreover, the GI50 in the experiment on UO-31, with SF-539, in the experiment on NCI-H460, in the experiment with HOP-62, in the experiment on IGROV-1 and in the experiment on U-251 was > 100 µM (inactive) throughout. The GI50 with HCC 2998, in the experiment with OVCAR-3, with NCI-H23, in the experiment with NCI-H522, with CCRF-CEM and in the experiment on HL-60 was > 100 µM (inactive) in each case. Also, the GI50 in the experiment with COLO 205 and in the experiment with A498 was > 100 µM (inactive) in each case.

Turning to `CCOP(=O)(OCC)/C(C#N)=C/c1cccn1N(C)C`, the GI50 in the experiment with K562 was > 100 µM (inactive); in the experiment with MDA-MB-435 it was > 100 µM (inactive); in the experiment with Hs-578T, > 100 µM (inactive); in the experiment on HCT-15, greater than 100 µM; in the experiment on UACC-257 it was > 100 µM (inactive); in the experiment on CAKI-1 it was > 100 µM (inactive). The GI50 with UO-31, in the experiment on SF-539, with NCI-H460, in the experiment with HOP-62, in the experiment with IGROV-1 and in the experiment on U-251 was > 100 µM (inactive) in each case. Moreover, the GI50 in the experiment with HCC 2998, in the experiment with OVCAR-3, in the experiment with NCI-H23, in the experiment with NCI-H522, with CCRF-CEM and in the experiment with HL-60 was > 100 µM (inactive) each time. Further, the GI50 with COLO 205 and in the experiment on A498 was > 100 µM (inactive) throughout.

For the compound `CCCC(O)c1cn(C(NC(=O)c2ccccc2)P(=O)(OCC)OCC)nn1` (stereo not given), the GI50 in the experiment on K562 is > 100 µM (inactive); in the experiment on MDA-MB-435, > 100 µM (inactive); in the experiment on Hs-578T, > 100 µM (inactive); in the experiment with HCT-15, greater than 100 µM; with UACC-257 it was > 100 µM (inactive); with CAKI-1, > 100 µM (inactive). Further, the GI50 in the experiment on UO-31, in the experiment on SF-539, in the experiment with NCI-H460, in the experiment on HOP-62, in the experiment with IGROV-1 and in the experiment with U-251 was > 100 µM (inactive) each time. Moreover, the GI50 with HCC 2998, in the experiment with OVCAR-3, with NCI-H23, with NCI-H522, in the experiment with CCRF-CEM and with HL-60 was > 100 µM (inactive) throughout. The GI50 in the experiment on COLO 205 and in the experiment on A498 was > 100 µM (inactive) each time.

Consider `CO[C@]12C[C@H](CNC(=O)c3cc(Br)c(Br)[nH]3)O[C@H]1NC(=O)N2`, for which the GI50 in the experiment on K562 is > 100 µM (inactive); with MDA-MB-435, > 100 µM (inactive); in the experiment with Hs-578T, > 100 µM (inactive); in the experiment with HCT-15, greater than 100 µM; with UACC-257, > 100 µM (inactive); in the experiment with CAKI-1, > 100 µM (inactive). In addition, the GI50 with UO-31, in the experiment with SF-539, in the experiment on NCI-H460, in the experiment with HOP-62, in the experiment on IGROV-1 and with U-251 was > 100 µM (inactive) throughout. Besides, the GI50 in the experiment on HCC 2998 is > 100 µM (inactive); with OVCAR-3, > 100 µM (inactive); in the experiment on NCI-H23 it was > 100 µM (inactive); with NCI-H522, > 100 µM (inactive); in the experiment on CCRF-CEM, 0.548 µM (active); in the experiment on HL-60, > 100 µM (inactive). For the same compound, the GI50 in the experiment with COLO 205 and in the experiment on A498 was > 100 µM (inactive) throughout.

As to `CCOC(=O)NC(OCCN(C)C)(C(F)(F)F)C(F)(F)F`, the GI50 with K562 was > 100 µM (inactive); in the experiment with MDA-MB-435, > 100 µM (inactive); with Hs-578T, > 100 µM (inactive); with HCT-15, greater than 100 µM; in the experiment on UACC-257 it was > 100 µM (inactive); in the experiment on CAKI-1, > 100 µM (inactive). Moreover, the GI50 with UO-31, with SF-539, in the experiment with NCI-H460, in the experiment on HOP-62, in the experiment with IGROV-1 and in the experiment on U-251 was > 100 µM (inactive) each time. For the same compound, the GI50 with HCC 2998, in the experiment with OVCAR-3, in the experiment with NCI-H23, with NCI-H522, in the experiment with CCRF-CEM and in the experiment on HL-60 was > 100 µM (inactive) throughout. The GI50 with COLO 205 and in the experiment on A498 was > 100 µM (inactive) throughout.

Regarding `CCOC(=O)c1cc(C2(O)CCN(Cc3ccccc3)C2=O)c(-c2cc(C)no2)[nH]1` (stereo not given), the GI50 in the experiment on K562 is 27 µM (inactive); in the experiment on MDA-MB-435, 36.7 µM (inactive); in the experiment with Hs-578T it was 34 µM (inactive); in the experiment with HCT-15, 71.3 µM; with UACC-257, 75.9 µM (inactive); with CAKI-1, 32.8 µM (inactive). Moreover, the GI50 is 32.1 µM (inactive) in the experiment with UO-31; 89.7 µM (inactive) in the experiment on SF-539; 32.4 µM (inactive) with NCI-H460; 64.7 µM (inactive) in the experiment with HOP-62; 46.7 µM (inactive) in the experiment with IGROV-1; 44.7 µM (inactive) in the experiment with U-251. In addition, the GI50 is 92.9 µM (inactive) in the experiment on HCC 2998; 36.5 µM (inactive) in the experiment with OVCAR-3; 73.3 µM (inactive) in the experiment with NCI-H23; 15.4 µM (inactive) in the experiment on NCI-H522; 29 µM (inactive) with CCRF-CEM; 15.3 µM (inactive) in the experiment with HL-60. For the same compound, the GI50 in the experiment on COLO 205 was 56.8 µM (inactive); with A498, > 100 µM (inactive).

`CC(C)(C)C(=O)CC1(O)C=C(O)C(O)(CC(=O)C(C)(C)C)O1` (stereo not given): the GI50 in the experiment with K562 is 54.8 µM (inactive); in the experiment with MDA-MB-435, 41.9 µM (inactive); with Hs-578T, 35.2 µM (inactive); in the experiment on HCT-15, 8.77 µM; in the experiment with UACC-257, 42.3 µM (inactive); in the experiment with CAKI-1, 13.6 µM (inactive). Moreover, the GI50 with UO-31 was 29.4 µM (inactive); in the experiment on SF-539, 18.8 µM (inactive); in the experiment on NCI-H460 it was 10.1 µM (inactive); in the experiment on HOP-62, 15.5 µM (inactive); in the experiment on IGROV-1, 7.13 µM (inactive); in the experiment on U-251 it was 36.8 µM (inactive). Further, the GI50 with HCC 2998 is > 100 µM (inactive); in the experiment on OVCAR-3, 59.4 µM (inactive); with NCI-H23, 22.1 µM (inactive); with NCI-H522 it was 20.4 µM (inactive); in the experiment with CCRF-CEM it was 6.46 µM (inactive); in the experiment on HL-60, 24.9 µM (inactive). For the same compound, the GI50 with COLO 205 was 21.7 µM (inactive); in the experiment with A498, > 100 µM (inactive).
